From patent publication US9308210B2, “Method for modulating canonical Wnt pathway using folate and inositol” (University of South Florida, priority 2009, dated 2016)
Structures can show the parent of a compound that is named as a salt.

How the values were obtained:
HTR-8/SVneo cells = test: In vitro wound assay of human trophoblast cell migration; assay type: cell-based; settings: HCy exposure experiments; scrape wound
Source text: In previous studies by the inventors analyzing the effects of lithium and the metabolite homocysteine (HCy) on early heart development, the results were similar. Both factors inhibited Wnt/β-catenin-mediated gene expression during induction stages of cardiogenesis. […] Folate protects the embryo from these adverse effects (Han et al., 2009). It was also noted that normal placental development was adversely affected by Li and HCy. A human trophoblast cell line, HTR-8/SVneo cells, was used to determine whether Li or HCy affect the migration of these cells in vitro and whether FA or FA/myo-inositol would protect the cells from adverse effects of the two cardiac teratogens. HCy exposure experiments were conducted. […] The wound edges are depicted by a white line in B. In panel A, it can be seen that the wound area is smaller. Administration of a combination of FA/myo-inositol, FA alone or myo-inositol alone, enhanced the expression of NMHC-IIB and FN to facilitate cell migration.

[1] = system: wound area of mouse dorsum; test: Mouse 3-mm excisional wound model with topical creams (FN, β-catenin, Lgr6 localization); assay type: in vivo; settings: higher folate diet 10 mg/kg from one week prior to wounding
Source text: For the mouse studies the animals were divided by random assignment into experimental groups, using both sexes. Folic acid and folic acid/myo-inositol in combination were topically administered to the wound directly with an inert vanishing cream (provided by Carrollwood Pharmacy) as the vehicle of administration or also in combination with an orally administered dietary folic acid supplement. […] The creams contained (i) FA only; two doses of […] combination of higher MI to FA ratio, (iii) a combination of lower MI to FA ratio, (iv) MI only and (v) vehicle control cream. […] The control animals were maintained on normal animal chow containing 3.3 mg/kg FA to maintain health of the animals. After wounding, animals were housed separately and maintained on their respective folate diets. The animals were maintained in cages that were wood chip free on a dust free base for the first several days, to prevent bedding and bedding dust from getting into the freshly made wounds to lessen chances of infection. The animals were anesthetized using isoflurane inhalation. One 3-mm excisional circular wound was made using a dermal biopsy punch, followed by application of the experimental or control topical cream on the wound. The excised area remained uncovered and healing was closely monitored daily until wound was closed. At day 15 after wounding, the animal was euthanized. […]

C57BL/6 mouse embryos [2] = settings: in vivo
[3] = system: Medium-Chain Acyl CoA Dehydrogenase (MCAD) protein; test: Immunostaining of MCAD protein in E15.5 hearts; assay type: in vivo, mouse; settings: E15.5 heart; versus control
Procedure: Li+-, and HCys-, and control, NaCl-exposed, embryos were fixed in 4% paraformaldehyde in PBS, paraffin embedded, and sectioned. Sections were immunostained with MCAD antibodies (Sigma, St. Louis, Mo.) for the protein product of Acadm gene expression. Primary antibody localization was visualized with Cy3-secondary antibodies. Localization of gene and protein expression was analyzed with a Nikon Optiphot II phase microscope (Nikon Instruments, Inc., Melville, N.Y.). Digitized images were obtained with a Nikon DS-L2 Camera unit.

C57BL/6 mouse embryos [4] = test: Morphometric measurements, resorptions and lethality of mouse embryos after Li or HCy exposure, FA rescue; assay type: in vivo; settings: for Resorptions (percent): hydrochloride
Source text: To determine whether the results in the avian system would extend to the mammalian system, the inventors conducted studies in the mouse embryo. All mice were maintained according to protocols approved by the Institutional Animal Care and Use Committee at the University of South Florida. The C57BL/6 mouse strain (Jackson Laboratories, Bar Harbor, Me.) was used throughout the study. E0.5 was defined as the morning when the vaginal sperm plug was detected. Timed pregnant mice were randomly allocated to receive a single dose of 100 μl of 6.25 mg/ml Li chloride, as determined previously (Chen et al., 2008), 100 μl of 75 μM HCy, or 100 μl of 6.25 mg/ml sodium chloride (control group); all treatments were given intraperitoneally (i.p). On E15.5, the utero-placental circulation of the pregnant mice, and the central and peripheral circulations of the embryos were examined non-invasively in utero using Doppler ultrasonography (Gui et al., 1996; Linask and Huhta, 2000). Sixty-eight embryos were exposed to Li, 59 to HCy and 42 to physiological saline.
An HCy concentration of 75 μM, used for maternal exposure, was determined empirically using different doses of HCy (i.e. 150, 75, 50 and 15 μM). The minimal teratogenic dose was determined to be 75 μM. […] The single i.p. injection of HCy at E6.75 produced a high number of valve defects (66%), as well as resorptions (46%). […] Because not all embryos within litters are at exactly the same stage of development, the variability of effects seen with either Li or HCy probably reflects the differences in developmental stage.
Following echo monitoring on E15.5, placental weight and morphometric measurements of crown-rump length and body weight were obtained. […] HCy administered on E6.75 induced valve defects in 66.1% of the embryos (39/59 embryos). Some litters were allowed to develop to E18.5.

In the case of `Nc1nc2ncc(CNc3ccc(C(=O)N[C@@H](CCC(=O)O)C(=O)O)cc3)nc2c(=O)[nH]1` [FA, folic acid], the “expression of NMHC-IIB and FN” value (HTR-8/SVneo cells) is reported as “enhanced”, the “healing with dietary supplementation” value [1] is reported as “no differences in healing” and the DAPI (C57BL/6 mouse embryos [2]) is reported as 1.82. For the same compound, the DVPI (C57BL/6 mouse embryos [2]) was 1.04, the “E/A Ratio” value (C57BL/6 mouse embryos [2]) was 0.28 and the HR (C57BL/6 mouse embryos [2]) was 191 bpm. For the same compound, the ICT % (C57BL/6 mouse embryos [2]) was 7.32%, the IRT % (C57BL/6 mouse embryos [2]) was 12.82% and the MPI (C57BL/6 mouse embryos [2]) was 0.50. The OF (C57BL/6 mouse embryos [2]) was 34.30 cm/s, the RR (C57BL/6 mouse embryos [2]) was 314 ms and the UAPI (C57BL/6 mouse embryos [2]) was 1.71.

`N[C@H]1CCSC1=O` [HCy, L-homocysteine thiolactone hydrochloride] was tested, and the MCAD protein [3] was “increased”, the “Body Weight” value (C57BL/6 mouse embryos [4]; E15.5 after exposure on E6.75) was 0.35 g and the CRL (C57BL/6 mouse embryos [4]; E15.5 after exposure on E6.75) was 13 mm. The “Placenta Weight” value (C57BL/6 mouse embryos [4]; E15.5 after exposure on E6.75) was 0.11 g, the embryonic lethality (C57BL/6 mouse embryos [4]; acute single dose of HCy at E5.5) was 79% and the “Resorptions (embryos/total)” value (C57BL/6 mouse embryos [4]; exposure on E6.75) was 27/59. For the same compound, the “Resorptions (percent)” value (C57BL/6 mouse embryos [4]; exposure on E6.75) was 46%, the “Resorptions (percent)” value (C57BL/6 mouse embryos [4]; exposure on E6.75, listed as HCys) was 45.7% and the “placental weight, crown-rump length and body weight versus control embryos” value (C57BL/6 mouse embryos [4]; single exposure on E6.75, E15.5) was “significantly decreased”.
